Data from patent US9718835B2 (China Medical University Hospital, priority 2013, dated 2017).

Legend:
SKOV3 (Ovary cancer) = assay: cells; assay type: cell-based, human; settings: Table 6; read-out: In vitro cytotoxicity SKOV3 (Ovary cancer)
Topo I [1] = target: T1, Topo I (Homo sapiens, UniProt P11387); assay: Topo I activity assay, nuclear extracts of treated A-549 cells, supercoiled DNA; assay type: cell-based; parameters: Nuclear extracts from 9a-treated A-549 cells were incubated with supercoiled DNA (for Topo I); endogenous in cells; host or cells: A-549
T1 sequence (P11387 1-765): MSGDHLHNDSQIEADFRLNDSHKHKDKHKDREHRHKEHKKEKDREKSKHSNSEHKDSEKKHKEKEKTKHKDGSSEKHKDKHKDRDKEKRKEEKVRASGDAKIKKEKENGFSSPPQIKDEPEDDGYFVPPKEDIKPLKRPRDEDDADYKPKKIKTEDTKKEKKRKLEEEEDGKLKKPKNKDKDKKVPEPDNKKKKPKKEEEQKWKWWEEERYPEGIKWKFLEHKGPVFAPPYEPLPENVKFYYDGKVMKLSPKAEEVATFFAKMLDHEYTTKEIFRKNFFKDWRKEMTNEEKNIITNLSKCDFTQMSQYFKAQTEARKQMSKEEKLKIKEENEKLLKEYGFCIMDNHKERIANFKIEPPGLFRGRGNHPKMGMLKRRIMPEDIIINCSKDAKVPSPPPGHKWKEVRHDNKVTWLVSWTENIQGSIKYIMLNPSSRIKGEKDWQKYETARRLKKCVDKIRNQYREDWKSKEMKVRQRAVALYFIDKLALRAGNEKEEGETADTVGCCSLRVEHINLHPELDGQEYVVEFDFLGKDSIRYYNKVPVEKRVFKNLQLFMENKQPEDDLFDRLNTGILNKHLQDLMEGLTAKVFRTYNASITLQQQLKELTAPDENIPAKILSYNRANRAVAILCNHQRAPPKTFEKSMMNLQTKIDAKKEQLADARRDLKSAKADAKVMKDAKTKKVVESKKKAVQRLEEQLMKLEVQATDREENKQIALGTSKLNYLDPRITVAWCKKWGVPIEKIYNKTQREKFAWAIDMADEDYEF
Experimental: (§1) First, we determined the effect of 9a on cell cycle distribution using flow cytometry analysis. […] Because it has been shown that 1-Topo I-DNA covalent complexes enhance the transcription-dependent degradation of Topo I via a 26S proteasome pathway,^32 the effects of 9a on the expression levels of Topo I and Topo II were investigated.
Topo I activity test was performed using an assay kit (TopoGEN) according to the manufacturer's instructions. Nuclear extracts from 9a-treated A-549 cells were incubated with supercoiled DNA (for Topo I) or catenated kDNA (for Topo II) for 30 min at 37° C. Reaction mixture was separated by is 1% agarose gel in 1×TAE buffer. The gel was stained with ethidium bromide and photographed using Gel Doc XR (Bio-Rad).

[2] = tested on: MDA-MB-468 (Breast cancer); assay: cells; assay type: cell-based, human; settings: Table 6; read-out: In vitro cytotoxicity MDA-MB-468 (Breast cancer)
ATM = assay: Western blot analysis of ATM phosphorylation (DNA damage response); assay type: cell-based, human; settings: after 0.5 h treatment
Experimental: Activation of ATM kinase was confirmed by detecting the phosphorylation of downstream effectors, Chk1, Chk2, and histone H2AX.
(§2) Cells were harvested in PBS containing proteinase inhibitors and phosphatase inhibitors, and sonicated. Whole cell lysates were separated by SDS-PAGE and transferred to Immobilon P membrane (EMD Millipore). The membrane was incubated with primary antibody followed by labeling with horseradish peroxidase (HRP)-conjugated secondary antibody (EMD Millipore). Chemilluminence substrate kit (EMD Millipore) was used for detection of membrane-bound HRP, and visualized by the Luminsence image analyzer, LAS4000 (Fuji Photo Film Co., Japan).
Antibodies to caspase-3, caspase-8, caspase-9, PARP, phospho-ATM (Ser1981), ATM, phospho-ATR (Ser428), phospho-Chk1 (Ser345), phospho-Chk2 (Thr68), Chk2, phospho-H2AX (Ser139), and phospho-p53 (Ser15) were purchased from Cell Signaling Technology. Antibodies against ATM, ATR, Chk1, and PUMA were from Santa Cruz Biotechnology. Antibodies against Topo I, Topo IIα, Topo IIβ, p53, FADD, BAX, Bcl-xL, and Bcl-2 were from BD Biosciences. Antibody to β-actin was purchased from EMD Millipore.

Topo I [3] = target: T1, Topo I; assay: Western blot analysis of Topo I expression; assay type: cell-based; parameters: endogenous in cells; host or cells: A-549; settings: after 8 h treatment
From the text: as §1, with “investigated. […] Compound 9a acts directly on Topo I and results in the accumulation of covalent Topo I-DNA complexes followed by proteasomal Topo I degradation, which is the same effect as 1 and contributes to 9a's cytotoxicity.” for “investigated.”
as §2
Antibodies to caspase-3, caspase-8, caspase-9, PARP, phospho-ATM (Ser1981), ATM, phospho-ATR (Ser428), phospho-Chk1 (Ser345), phospho-Chk2 (Thr68), Chk2, phospho-H2AX (Ser139), and phospho-p53 (Ser15) were purchased from Cell Signaling Technology. […]

## CC[C@@]1(OC(=O)CNC(Cc2ccc(OC)cc2)=NS(=O)(=O)c2ccc(C)cc2)C(=O)OCc2c1cc1n(c2=O)Cc2cc3ccccc3nc2-1 [Compound 9a]
SKOV3 (Ovary cancer)
  IC50: 17.1 ± 2.27 nM
Topo I [1]
  Topo I-mediated relaxation of supercoiled DNA: inhibited the relaxation of supercoiled DNA
[2]
  IC50: 22.8 ± 2.97 nM
ATM
  ATM phosphorylation at Ser1981: underwent phosphorylation at Ser1981 residue
Topo I [3]
  protein levels of Topo I: significantly inhibited protein levels of Topo I
